According to patent US11819476B2, “Rapamycin analogs and uses thereof” (Janssen Pharmaceutica NV, priority 2019, dated 2023):

Tested on: pS6K1 in MCF7
Assay: AlphaLISA Ultra pS6K1 Assay
Format: cell-based
Details: Homo sapiens, 1.5 h; MCF7 cells, 90 min incubation
Method: Example 74: AlphaLISA Ultra pS6K1 Assay
Assay Protocol: • 1. Seed MCF-7 cells in Corning 3701 plate and incubate for 20˜24 hour. 12,000˜16,000 cells will be seeded in 36 μL medium per well. • 2. Change the culture medium with fresh medium and incubate for another 2 hours. • 3. Add 12 μL (4×) compounds into the cell plate by HAMILTON. Final DMSO concentration is 0.5%. Incubate for 90 minutes. • 4. Aspirate 38 μL by HAMILTON, 10 μL rest per well. • 5. Add 10 μL 2× lysis buffer using HAMILTON; total volume in wells is 20 μL. Allow cells to shake for 30 min. Cover plate by plastic foil and store plate at −80° C. up to analysis. • 6. Thaw cell lysate at RT and transfer 10 μL lysate to assay plate (Optiplate-384). • 7. Add 5 μL acceptor beads into assay plate and incubation for 2 hours • 8. Add 5 μL donor beads and incubation for 2 hours • 9. Count the plate by EnSpire Multimode Plate Reader

| SMILES | IC50 [nM] |
| --- | --- |
| COCCSC1C[C@@H]2CC[C@@H](C)[C@@](O)(O2)C(=O)C(=O)N2CCCC[C@H]2C(=O)O[C@H]([C@H](C)C[C@@H]2CC[C@@H](O)[C@H](OC)C2)CC(=O)[C@H](C)/C=C(\C)[C@@H](O)[C@@H](OC)C(=O)[C@H](C)C[C@H](C)/C=C/C=C/C=C/1C (stereo partly drawn) [Example I-31, (22E,24E,26E,27E,33R,34S,35R,36R,38S,40S,43S,44S,45R,54R)-44,54-dihydroxy-43-[(1R)-2-[(1S,3R,4R)-4-hydroxy-3-methoxy-cyclohexyl]-1-methyl-ethyl]-45-methoxy-42-[2-(2-methoxyethoxy)ethylsulfanyl]-33,34,35,36,46,47-hexamethyl-64,65-dioxa-55-azatricyclohexatriaconta-22,24,26(46),27(47)-tetraene-48,49,50,51,52-pentone] | 1 to 10 |
| COCCOc1ccc(C2C[C@@H]3CC[C@@H](C)[C@@](O)(O3)C(=O)C(=O)N3CCCC[C@H]3C(=O)O[C@H]([C@H](C)C[C@@H]3CC[C@@H](O)[C@H](OC)C3)CC(=O)[C@H](C)/C=C(\C)[C@H](O)[C@@H](OC)C(=O)[C@H](C)C[C@H](C)/C=C/C=C/C=C/2C)c(OC)c1 (stereo partly drawn) [Example I-24, (26E,28E,30E,31E,38R,39S,40R,41R,43S,45S,48S,49S,50R,59R)-49,59-dihydroxy-48-[(1R)-2-[(1S,3R,4R)-4-hydroxy-3-methoxy-cyclohexyl]-1-methyl-ethyl]-50-methoxy-46-[2-methoxy-4-(2-methoxyethoxy)phenyl]-38,39,40,41,51,52-hexamethyl-69,70-dioxa-60-azatricyclohexatriaconta-26,28,30(51),31(52)-tetraene-53,54,55,56,57-pentone] | 1 to 10 |
| CO[C@@H]1C[C@H](C[C@@H](C)[C@@H]2CC(=O)[C@H](C)/C=C(\C)[C@@H](O)[C@@H](OC)C(=O)[C@H](C)C[C@H](C)/C=C/C=C/C=C(\C)C(OCCCC(=O)O)C[C@@H]3CC[C@@H](C)[C@@](O)(O3)C(=O)C(=O)N3CCCC[C@H]3C(=O)O2)CC[C@H]1OCCO (stereo partly drawn) [Example I-30, 4-[[(21E,23E,25E,26E,33R,34S,35R,36R,38S,40S,43S,44R,45R,55R)-44,55-dihydroxy-43-[(1R)-2-[(1S,3R,4R)-4-(2-hydroxyethoxy)-3-methoxy-cyclohexyl]-1-methyl-ethyl]-45-methoxy-33,34,35,36,46,47-hexamethyl-48,49,50,51,52-pentaoxo-67,68-dioxa-56-azatricyclohexatriaconta-21,23,25(46),26(47)-tetraen-42-yl]oxy]butanoic acid] | ≥ 100 |
| COc1ccc([C@@H]2C[C@@H]3CC[C@@H](C)[C@@](O)(O3)C(=O)C(=O)N3CCCC[C@H]3C(=O)O[C@H]([C@H](C)C[C@@H]3CC[C@@H](O)[C@H](OC)C3)CC(=O)[C@H](C)/C=C(\C)[C@H](O)[C@@H](OC)C(=O)[C@H](C)C[C@H](C)/C=C/C=C/C=C/2C)c(OC)c1 [Example I-37, (26E,28E,30E,31E,36R,37S,38R,39R,41S,43S,44R,46S,47R,48R,57R)-44-(2,4-dimethoxyphenyl)-47,57-dihydroxy-46-[(1R)-2-[(1S,3R,4R)-4-hydroxy-3-methoxy-cyclohexyl]-1-methyl-ethyl]-48-methoxy-36,37,38,39,49,50-hexamethyl-67,68-dioxa-58-azatricyclohexatriaconta-26,28,30(49),31(50)-tetraene-51,52,53,54,55-pentone] | ≥ 100 |
| CO[C@@H]1C[C@H](C[C@@H](C)[C@@H]2CC(=O)[C@H](C)/C=C(\C)[C@@H](O)[C@@H](OC)C(=O)[C@H](C)C[C@H](C)/C=C/C=C/C=C(\C)C(OCC3CCCCC3)C[C@@H]3CC[C@@H](C)[C@@](O)(O3)C(=O)C(=O)N3CCCC[C@H]3C(=O)O2)CC[C@H]1OCCO (stereo partly drawn) [Example I-10, (26E,28E,30E,31E,36R,37S,38R,39R,42S,44S,47S,48R,49R,58R)-46-(cyclohexylmethoxy)-48,58-dihydroxy-47-[(1R)-2-[(1S,3R,4R)-4-(2-hydroxyethoxy)-3-methoxy-cyclohexyl]-1-methyl-ethyl]-49-methoxy-36,37,38,39,50,51-hexamethyl-68,69-dioxa-59-azatricyclohexatriaconta-26,28,30(50),31(51)-tetraene-52,53,54,55,56-pentone] | 1 to 10 |
| CO[C@@H]1C[C@H](C[C@@H](C)[C@@H]2CC(=O)[C@H](C)/C=C(\C)[C@@H](O)[C@@H](OC)C(=O)[C@H](C)C[C@H](C)/C=C/C=C/C=C(\C)C(OCCOC3CCOCC3)C[C@@H]3CC[C@@H](C)[C@@](O)(O3)C(=O)C(=O)N3CCCC[C@H]3C(=O)O2)CC[C@H]1OCCO (stereo partly drawn) [Example I-13, (25E,27E,29E,30E,36R,37S,38R,39R,42S,44S,47S,48R,49R,58R)-48,58-dihydroxy-47-[(1R)-2-[(1S,3R,4R)-4-(2-hydroxyethoxy)-3-methoxy-cyclohexyl]-1-methyl-ethyl]-49-methoxy-36,37,38,39,50,51-hexamethyl-46-(2-tetrahydropyran-4-yloxyethoxy)-69,70-dioxa-59-azatricyclohexatriaconta-25,27,29(50),30(51)-tetraene-52,53,54,55,56-pentone] | 1 to 10 |
| CO[C@@H]1C[C@H](C[C@@H](C)[C@@H]2CC(=O)[C@H](C)/C=C(\C)[C@@H](O)[C@@H](OC)C(=O)[C@H](C)C[C@H](C)/C=C/C=C/C=C(\C)C(OCCOc3ccccc3)C[C@@H]3CC[C@@H](C)[C@@](O)(O3)C(=O)C(=O)N3CCCC[C@H]3C(=O)O2)CC[C@H]1OCCO (stereo partly drawn) [Example I-12, (26E,28E,30E,31E,38R,39S,40R,41R,43S,45S,48S,49R,50R,59R)-49,59-dihydroxy-48-[(1R)-2-[(1S,3R,4R)-4-(2-hydroxyethoxy)-3-methoxy-cyclohexyl]-1-methyl-ethyl]-50-methoxy-38,39,40,41,51,52-hexamethyl-47-(2-phenoxyethoxy)-69,70-dioxa-60-azatricyclohexatriaconta-26,28,30(51),31(52)-tetraene-53,54,55,56,57-pentone] | 0.1 to 1 |
| CO[C@@H]1C[C@H](C[C@@H](C)[C@@H]2CC(=O)[C@H](C)/C=C(\C)[C@@H](O)[C@@H](OC)C(=O)[C@H](C)C[C@H](C)/C=C/C=C/C=C(\C)C(OCCCCCO)C[C@@H]3CC[C@@H](C)[C@@](O)(O3)C(=O)C(=O)N3CCCC[C@H]3C(=O)O2)CC[C@H]1O (stereo partly drawn) [Example I-34, (21E,23E,25E,26E,33R,34S,35R,36R,38S,40S,43S,44R,45R,54R)-44,54-dihydroxy-43-[(1R)-2-[(1S,3R,4R)-4-hydroxy-3-methoxy-cyclohexyl]-1-methyl-ethyl]-42-(5-hydroxypentoxy)-45-methoxy-33,34,35,36,46,47-hexamethyl-65,66-dioxa-55-azatricyclohexatriaconta-21,23,25(46),26(47)-tetraene-48,49,50,51,52-pentone] | 0.1 to 1 |
| CO[C@@H]1C[C@H](C[C@@H](C)[C@@H]2CC(=O)[C@H](C)/C=C(\C)[C@@H](O)[C@@H](OC)C(=O)[C@H](C)C[C@H](C)/C=C/C=C/C=C(\C)[C@H](OCCCC(N)=O)C[C@@H]3CC[C@@H](C)[C@@](O)(O3)C(=O)C(=O)N3CCCC[C@H]3C(=O)O2)CC[C@H]1OCCO [Example I-28, 4-[[(21E,23E,25E,26E,33R,34S,35R,36R,38S,40S,42R,43S,44R,45R,55R)-44,55-dihydroxy-43-[(1R)-2-[(1S,3R,4R)-4-(2-hydroxyethoxy)-3-methoxy-cyclohexyl]-1-methyl-ethyl]-45-methoxy-33,34,35,36,46,47-hexamethyl-48,49,50,51,52-pentaoxo-67,68-dioxa-57-azatricyclohexatriaconta-21,23,25(46),26(47)-tetraen-42-yl]oxy]butanamide] | 10 to 100 |

Tested on: pS6K1 T389 in PC3 cells (mTORC1 pathway)
Assay: Western blot based pS6K1 assay (mTORC1 pathway)
Format: cell-based
Details: 24 hours
Method: Example 76: Western Blot Based pS6K1 and pAKT Assay at 24 and 48 Hour Timepoints
Assay Protocol: • 1. Seed six well plate with 500,000 PC3 cells per well and incubate for […]. • 2. Add compounds into the cell plate. Incubate for 24 to 48 hours. • 4. Plate is placed on ice and the media is removed via aspiration. The wells are washed with 1 mL of 1×PBS and then fully aspirated. • 5. 110 μL of 1% Triton Lysis Buffer is added and each well is scraped vigorously. • 6. Cell homogenates are transferred to 1.5 mL eppendorf tubes on ice and spun down at 4° C. for 10 minutes at 10,000 rpm. • 7. Protein concentration of resulting cell lysates were quantified utilizing a Bradford assay and the samples run analyzed via Western blot on 4-12% Bis/Tris gels with 1×MES buffer. • 8. The gels were transferred onto membranes at 50V for 100 minutes, blocked with Odyssey Blocking buffer for 30 minutes then incubated overnight with primary antibody (pS6K1 T389 Rabbit or pAkt S473 Rabbit) overnight at 4° C. on a rotator. • 9. The membranes were washed 3× with TBS-T with a 5 minute incubation between each wash then incubated with secondary antibody (LiCor IRDye 800 Donkey Anti Rabbit) for at least 30 minutes. • 10. The membranes were washed 3× with TBS-T with a 5 minute incubation between each wash. • 11. The gels were then incubated for 5 minutes with PBS at room temperature then imaged using a Li-Cor.
PC3 cells were treated with everolimus (0.1 μM, 0.01 μM, and 0.001 μM) or I-9 ([…], 0.1 μM, 0.01 μM, and 0.001 μM) for 24 hours.
The methods employed were substantially similar to those described above. Compounds were evaluated in PC3 cells. Additional cell lines that may be used include Jurkat cells, wild-type mouse embryotic fibroblast (MEF) cells, tuberous sclerosis 2 (TSC2) negative (TSC−/−) MEF cells, and tuberous sclerosis 2 (TSC2) positive (TSC+/+) MEF cells. Cells are incubated with compounds of the present invention for various time periods (e.g., 5 minutes, 15 minutes, 30 minutes, 90 minutes, 24 hours, or 48 hours), and evaluated according to known methodologies, such as those herein described.

| SMILES | inhibition of the mTORC1 pathway (pS6K1, Western blot) |
| --- | --- |
| CO[C@@H]1C[C@H](C[C@@H](C)[C@@H]2CC(=O)[C@H](C)/C=C(\C)[C@@H](O)[C@@H](OC)C(=O)[C@H](C)C[C@H](C)/C=C/C=C/C=C(\C)[C@@H](OCCCCC(N)=O)C[C@@H]3CC[C@@H](C)[C@@](O)(O3)C(=O)C(=O)N3CCCC[C@H]3C(=O)O2)CC[C@H]1OCCO [Example I-48] | strong inhibition |
